Assay results as given in patent US20220023289A1, “Application Of Pyrroloquinoline Quinone In Preparation Of Medicament Used For Preventing And Treating Acute Altitude Sickness And Acute Altitude Hypoxia Injury” (priority 2018, published 2022).

Tests used:
[1] = system: rats with acute altitude hypoxia injury; assay: Serum energy metabolism indexes (ATP, lactic acid) in rats with acute altitude hypoxia injury; format: in vivo, Wistar rat
Protocol: (§1) Determination of adenosine triphosphate (ATP): Perform enzyme-linked immunosorbent assay by double-antibody one-step sandwich method. To the coated microwells pre-coated with rat adenosine triphosphate (ATP) capture antibody, add in sequence the specimens, standard, and HRP-labeled detection antibody, and then incubate and wash thoroughly. Use a substrate TMB for color development, TMB is converted into blue under the catalysis of peroxidase and converted into the final yellow color under the action of acid. The color intensity is positively correlated with the rat adenosine triphosphate (ATP) in the sample. […] Determination of lactic acid (LC): Perform enzyme-linked immunosorbent assay by double-antibody one-step sandwich method. To the coated microwells pre-coated with rat lactic acid (LC) capture antibody, add in sequence the specimens, standard, and HRP-labeled detection antibody, and then incubate and wash thoroughly. Use a substrate TMB for color development. TMB is converted into blue under the catalysis of peroxidase and converted into the final yellow color under the action of acid. The color intensity is positively correlated with the rat lactic acid (LC) in the sample.

[2] = system: rats exposed to acute altitude hypoxia; assay: Endothelial function (serum endothelin-1, nitric oxide) in rats exposed to acute altitude hypoxia; format: in vivo, Wistar rat
Description: This method uses nitrate reductase specificity reduce NO^3− to NO^2−, and then determine the level of its concentration by displaying shades of color. Operate according to the kit instructions, measure the absorbance of each tube at a wavelength of 550 nm, and then calculate the content of nitric oxide of the sample to be tested according to the formula. To the coated microwells pre-coated with rat endothelin (endothelin-1) capture antibody, add in sequence specimens, standards, and HRP-labeled detection antibody, and then incubate and wash thoroughly. Use a substrate TMB for color development. TMB is converted into blue under the catalysis of peroxidase and converted into the final yellow color under the action of acid. The color intensity is positively correlated with the rat endothelin (endothelin-1) in the sample.

[3] = system: rats exposed to acute altitude hypoxia; assay: Lipid metabolism in rats exposed to acute altitude hypoxia; format: in vivo, Wistar rat
Protocol: (§2) Select healthy Wistar rats weight 160-200 g, half female and half male. After feeding for 3 days, these Wistar rats are randomly divided into ten groups according to their body weight, each group has 16±2 rats. The groups are divided as follows: five groups of the hypoxic exposure drug test group, respectively, are given 0.91 mg/kg, 1.83 mg/kg, 3.66 mg/kg, 7.31 mg/kg, and 14.63 mg/kg drugs. […] After continuous intragastric administration for 7 days, the animals in the hypoxic exposure group are simultaneously put into the decompression and hypoxia compound experimental chamber, the hatch is closed, and the pressure is reduced at a speed of 10 m/s. After being raised to an altitude of 6000 m and maintained for 8 hours, the speed in 10 m/s drops is reduced to normal altitude, open the hatch, and then take out the animal, collect blood samples (after standing for 1 hour, the supernatant is centrifuged and stored at −20° C.), and liver tissue samples. Detection indicator includes body weight, serum blood glucose, ATP, lactic acid, endothelin, nitric oxide, SOD, CO, MDA related to oxidative stress, and total protein, albumin, triglycerides, total cholesterol, high-density lipoprotein cholesterol, low-density lipoprotein cholesterol, glutamic pyruvic transaminase, total bilirubin, gluamic oxalacetic transaminase, serum urea nitrogen, creatinine, uric acid, lactate dehydrogenase, creatine kinase, α-hydroxybutyrate dehydrogenase; liver ATP, hepatic glycogen. Except that the formal oxygen control animal group is not put into the decompression and hypoxia compound experimental chamber, other experimental conditions and detection indicators are the same.
(§3) Measure blood glucose, total protein, albumin, triglycerides, total cholesterol, high-density lipoprotein cholesterol, low-density lipoprotein cholesterol, glutamic-pyruvic transaminase, total bilirubin, glutamic oxalacetic transaminase, serum urea nitrogen, creatinine, uric acid, lactate dehydrogenase, creatine kinase, α-hydroxybutyrate dehydrogenase, blood homocysteine by using an automatic blood biochemical analyzer.

[4] = system: rats exposed to acute altitude hypoxia; assay: Blood glucose in rats exposed to acute altitude hypoxia (6000 m, 8 h, after 7 days intragastric); format: in vivo, Wistar rat
Protocol: as §2, §3

[5] = Body weight of mice before closed hypoxia tolerance test
[6] = system: rats exposed to acute altitude hypoxia; assay: Liver ATP and glycogen in rats exposed to acute altitude hypoxia; format: in vivo, Wistar rat
Protocol: as §1, with “liver glycogen (GC):” for “lactic acid (LC):”, “liver glycogen (GC)” for “lactic acid (LC)”, “development,” for “development.”

[7] = female rats, hypoxia, 0.91 mg/kg
[8] = female rats, hypoxia, 1.83 mg/kg
[9] = female rats, hypoxia, 3.66 mg/kg
[10] = female rats, hypoxia, 7.31 mg/kg
[11] = female rats, hypoxia, 14.63 mg/kg
[12] = female rats, normoxia, 3.66 mg/kg
[13] = male rats, hypoxia, 14.63 mg/kg
[14] = female rats after acute hypoxia exposure

O=C(O)c1cc(C(=O)O)c2c(n1)C(=O)C(=O)c1cc(C(=O)O)[nH]c1-2 [PQQ, pyrroloquinoline quinone]
serum Lactic acid [1, 7]: 222.06 ± 12.56 ng/L
serum Lactic acid [1, 8]: 221.04 ± 14.36 ng/L
serum Lactic acid [1, 9]: 242.8 ± 8.13 ng/L
serum Lactic acid [1, 10]: 196.41 ± 11.86 ng/L
serum Lactic acid [1, 11]: 173.09 ± 24.20 ng/L
effect on serum ATP content ([1]; female rats, normoxia): no significant effect
effect on serum lactic acid content ([1]; female rats, normoxia): reducing
serum Lactic acid [1, 12]: 116.73 ± 13.32 ng/L
effect on serum ATP and lactic acid content ([1]; hypoxia exposed female rats): increasing
effect on serum ATP and lactic acid content ([1]; male rats): no significant effects
serum Lactic acid ([1]; male rats, hypoxia, 0.91 mg/kg): 188.70 ± 29.68 ng/L
serum Lactic acid ([1]; male rats, hypoxia, 1.83 mg/kg): 177.33 ± 19.55 ng/L
serum Lactic acid ([1]; male rats, hypoxia, 3.66 mg/kg): 189.12 ± 24.64 ng/L
serum Lactic acid ([1]; male rats, hypoxia, 7.31 mg/kg): 172.64 ± 12.25 ng/L
serum Lactic acid [1, 13]: 180.81 ± 24.64 ng/L
effect on nitric oxide [2, 14]: no significant effect
effect on serum endothelin-1 content [2, 14]: can increase
Endothelin-1 [2, 7]: 64.75 ± 2.72 ng/mL
Nitric oxide [2, 7]: 3.50 ± 1.24 µmol/L
Endothelin-1 [2, 8]: 63.21 ± 4.33 ng/mL
Nitric oxide [2, 8]: 4.47 ± 1.35 µmol/L
Endothelin-1 [2, 9]: 68.58 ± 5.38 ng/mL
Nitric oxide [2, 9]: 6.19 ± 2.06 µmol/L
Endothelin-1 [2, 10]: 65.44 ± 14.06 ng/mL
Nitric oxide [2, 10]: 5.92 ± 2.31 µmol/L
Endothelin-1 [2, 11]: 65.26 ± 6.60 ng/mL
Nitric oxide [2, 11]: 4.62 ± 3.25 µmol/L
effect on nitric oxide content ([2]; female rats, normoxia): no significant effects
effect on serum endothelin-1 content ([2]; female rats, normoxia): can reduce
Endothelin-1 [2, 12]: 47.50 ± 7.31 ng/mL
Nitric oxide [2, 12]: 5.01 ± 1.57 µmol/L
effect on serum endothelin-1 and nitric oxide ([2]; hypoxia exposed male rats): no significant effects
Endothelin-1 ([2]; male rats, hypoxia, 0.91 mg/kg): 45.35 ± 4.24 ng/mL
Nitric oxide ([2]; male rats, hypoxia, 0.91 mg/kg): 5.28 ± 0.71 µmol/L
Endothelin-1 ([2]; male rats, hypoxia, 1.83 mg/kg): 42.59 ± 1.45 ng/mL
Nitric oxide ([2]; male rats, hypoxia, 1.83 mg/kg): 5.15 ± 2.11 µmol/L
Endothelin-1 ([2]; male rats, hypoxia, 3.66 mg/kg): 48.14 ± 3.13 ng/mL
Nitric oxide ([2]; male rats, hypoxia, 3.66 mg/kg): 5.35 ± 1.35 µmol/L
Endothelin-1 ([2]; male rats, hypoxia, 7.31 mg/kg): 43.60 ± 0.94 ng/mL
Nitric oxide ([2]; male rats, hypoxia, 7.31 mg/kg): 6.20 ± 2.49 µmol/L
Endothelin-1 [2, 13]: 42.45 ± 3.84 ng/mL
Nitric oxide [2, 13]: 6.46 ± 1.44 µmol/L
High density lipoprotein cholesterol [3, 7]: 1.30 ± 0.07 mmol/L
Low density lipoprotein cholesterol [3, 7]: 0.12 ± 0.01 mmol/L
Total cholesterol [3, 7]: 1.69 ± 0.11 mmol/L
High density lipoprotein cholesterol [3, 8]: 1.18 ± 0.14 mmol/L
Low density lipoprotein cholesterol [3, 8]: 0.10 ± 0.02 mmol/L
Total cholesterol [3, 8]: 1.56 ± 0.17 mmol/L
High density lipoprotein cholesterol [3, 9]: 1.14 ± 0.10 mmol/L
Low density lipoprotein cholesterol [3, 9]: 0.10 ± 0.02 mmol/L
Total cholesterol [3, 9]: 1.47 ± 0.11 mmol/L
High density lipoprotein cholesterol [3, 10]: 1.27 ± 0.09 mmol/L
Low density lipoprotein cholesterol [3, 10]: 0.10 ± 0.02 mmol/L
Total cholesterol [3, 10]: 1.69 ± 0.09 mmol/L
High density lipoprotein cholesterol [3, 11]: 1.28 ± 0.11 mmol/L
Low density lipoprotein cholesterol [3, 11]: 0.11 ± 0.02 mmol/L
Total cholesterol [3, 11]: 1.64 ± 0.13 mmol/L
effect on total cholesterol, low-density and high-density lipoprotein cholesterol ([3]; female rats, normoxia): no significant effects
High density lipoprotein cholesterol [3, 12]: 1.39 ± 0.10 mmol/L
Low density lipoprotein cholesterol [3, 12]: 0.14 ± 0.03 mmol/L
Total cholesterol [3, 12]: 1.87 ± 0.10 mmol/L
effect on total cholesterol, low-density and high-density lipoprotein cholesterol ([3]; hypoxia exposed female rats): no significant effects
effect on triglycerides ([3]; male rats exposed to hypoxia): is not found
High density lipoprotein cholesterol ([3]; male rats, hypoxia, 0.91 mg/kg): 1.03 ± 0.09 mmol/L
Low density lipoprotein cholesterol ([3]; male rats, hypoxia, 0.91 mg/kg): 0.16 ± 0.03 mmol/L
Total cholesterol ([3]; male rats, hypoxia, 0.91 mg/kg): 1.47 ± 0.15 mmol/L
Triglycerides ([3]; male rats, hypoxia, 0.91 mg/kg): 1.25 ± 0.64 mmol/L
High density lipoprotein cholesterol ([3]; male rats, hypoxia, 1.83 mg/kg): 1.23 ± 0.11 mmol/L
Low density lipoprotein cholesterol ([3]; male rats, hypoxia, 1.83 mg/kg): 0.20 ± 0.02 mmol/L
Total cholesterol ([3]; male rats, hypoxia, 1.83 mg/kg): 1.71 ± 0.90 mmol/L
Triglycerides ([3]; male rats, hypoxia, 1.83 mg/kg): 1.06 ± 0.35 mmol/L
High density lipoprotein cholesterol ([3]; male rats, hypoxia, 3.66 mg/kg): 1.28 ± 0.09 mmol/L
Low density lipoprotein cholesterol ([3]; male rats, hypoxia, 3.66 mg/kg): 0.19 ± 0.04 mmol/L
Total cholesterol ([3]; male rats, hypoxia, 3.66 mg/kg): 1.80 ± 0.16 mmol/L
Triglycerides ([3]; male rats, hypoxia, 3.66 mg/kg): 1.36 ± 0.58 mmol/L
High density lipoprotein cholesterol ([3]; male rats, hypoxia, 7.31 mg/kg): 1.23 ± 0.10 mmol/L
Low density lipoprotein cholesterol ([3]; male rats, hypoxia, 7.31 mg/kg): 0.16 ± 0.02 mmol/L
Total cholesterol ([3]; male rats, hypoxia, 7.31 mg/kg): 1.69 ± 0.10 mmol/L
Triglycerides ([3]; male rats, hypoxia, 7.31 mg/kg): 1.35 ± 0.36 mmol/L
High density lipoprotein cholesterol [3, 13]: 1.44 ± 0.15 mmol/L
Low density lipoprotein cholesterol [3, 13]: 0.19 ± 0.03 mmol/L
Total cholesterol [3, 13]: 1.95 ± 0.15 mmol/L
Triglycerides [3, 13]: 1.40 ± 0.74 mmol/L
effect on low density lipoprotein cholesterol ([3]; male rats, low-dose): no significant effects
effect on total cholesterol and high-density lipoprotein cholesterol ([3]; male rats, low-dose): reducing the amount
effect on blood glucose ([4]; acute hypoxia exposed female rats): increasing blood glucose
Blood sugar [4, 7]: 8.59 ± 0.48 mmol/L
Blood sugar [4, 8]: 8.28 ± 0.84 mmol/L
Blood sugar [4, 9]: 8.27 ± 0.37 mmol/L
Blood sugar [4, 10]: 7.91 ± 0.65 mmol/L
Blood sugar [4, 11]: 7.55 ± 0.48 mmol/L
effect on blood glucose ([4]; female rats, normoxia): no significant effects
Blood sugar [4, 12]: 8.13 ± 0.57 mmol/L
effect on blood glucose level ([4]; male rats): no significant effects
Blood sugar ([4]; male rats, hypoxia, 0.91 mg/kg): 7.35 ± 1.94 mmol/L
Blood sugar ([4]; male rats, hypoxia, 1.83 mg/kg): 8.21 ± 1.46 mmol/L
Blood sugar ([4]; male rats, hypoxia, 3.66 mg/kg): 8.97 ± 1.44 mmol/L
Blood sugar ([4]; male rats, hypoxia, 7.31 mg/kg): 8.28 ± 1.57 mmol/L
Blood sugar [4, 13]: 8.85 ± 2.04 mmol/L
weight 1 day ([5]; female mice, 1.32 mg/kg): 20.31 ± 1.29 g
weight 3 days ([5]; female mice, 1.32 mg/kg): 22.33 ± 1.91 g
weight 1 day ([5]; female mice, 2.64 mg/kg): 19.83 ± 1.19 g
weight 3 days ([5]; female mice, 2.64 mg/kg): 22.22 ± 1.28 g
weight 1 day ([5]; female mice, 5.28 mg/kg): 20.58 ± 1.07 g
weight 3 days ([5]; female mice, 5.28 mg/kg): 22.52 ± 1.71 g
weight 1 day ([5]; female mice, 10.56 mg/kg): 20.13 ± 1.64 g
weight 3 days ([5]; female mice, 10.56 mg/kg): 21.92 ± 1.83 g
weight 1 day ([5]; female mice, 21.12 mg/kg): 20.19 ± 1.34 g
weight 3 days ([5]; female mice, 21.12 mg/kg): 22.49 ± 1.77 g
weight 1 day ([5]; male mice, 1.32 mg/kg): 15.46 ± 1.04 g
weight 3 days ([5]; male mice, 1.32 mg/kg): 17.74 ± 1.30 g
weight 1 day ([5]; male mice, 2.64 mg/kg): 15.40 ± 1.03 g
weight 3 days ([5]; male mice, 2.64 mg/kg): 17.46 ± 1.29 g
weight 1 day ([5]; male mice, 5.28 mg/kg): 15.51 ± 1.11 g
weight 3 days ([5]; male mice, 5.28 mg/kg): 17.41 ± 1.23 g
weight 1 day ([5]; male mice, 10.56 mg/kg): 15.32 ± 1.10 g
weight 3 days ([5]; male mice, 10.56 mg/kg): 16.20 ± 1.03 g
weight 1 day ([5]; male mice, 21.12 mg/kg): 15.45 ± 0.97 g
weight 3 days ([5]; male mice, 21.12 mg/kg): 17.54 ± 1.14 g
effect on liver ATP and glycogen content ([6]; female rats, after hypoxia exposure and normoxia): no significant effects
liver Glycogen [6, 7]: 2.52 ± 0.36 ng/mL
liver ATP [6, 8]: 1.58 ± 0.27 µg/mL
liver Glycogen [6, 8]: 2.89 ± 0.57 ng/mL
liver ATP [6, 9]: 1.64 ± 0.37 µg/mL
liver Glycogen [6, 9]: 2.84 ± 0.67 ng/mL
liver Glycogen [6, 10]: 3.07 ± 0.19 ng/mL
liver Glycogen [6, 11]: 3.62 ± 0.38 ng/mL
liver ATP [6, 12]: 1.62 ± 0.13 µg/mL
liver Glycogen [6, 12]: 2.89 ± 0.28 ng/mL
effect on liver ATP and glycogen content ([6]; male rats): can increase
liver Glycogen ([6]; male rats, hypoxia, 0.91 mg/kg): 2.41 ± 0.41 ng/mL
liver Glycogen ([6]; male rats, hypoxia, 1.83 mg/kg): 2.23 ± 0.17 ng/mL
liver Glycogen ([6]; male rats, hypoxia, 3.66 mg/kg): 2.70 ± 0.84 ng/mL
liver Glycogen ([6]; male rats, hypoxia, 7.31 mg/kg): 2.86 ± 0.43 ng/mL
liver Glycogen [6, 13]: 2.55 ± 0.28 ng/mL
